Test results: patent US10202371B2, “Oxazolidin-2-one-pyrimidine derivatives and the use thereof as phosphatidylinositol-3-kinase inhibitors” (Novartis AG, priority 2012, dated 2019)
pIC50: −log10 of the molar value. Read-outs that look alike come from different tables or passages of the source.

Tests used:
Format in all cases: cell-based
Conditions in all cases: Homo sapiens, BrdU incorporation
SCL-1 cells = test: BrdU cell proliferation assay SCL-1
Text: (§1) The SCL-1 and SCC12B2 are human cutaneous squamous cell carcinoma (SCC) cell lines derived from naturally occurring, poorly differentiated SCCs. The SCL-1 cell line was originally established in the lab of N. Fusenig at the Cancer Research Center in Heidelberg, and its growth characteristics in vitro in comparison to normal keratinocytes were described previously (Neely et al 1991). The SCC12B2 cell line was established as described previously (Rheinwald & Beckett 1981) from the facial skin of a transplant patient who received immunosuppressive therapy for 7 years. The human SCC cell line Detroit562 was obtained from American Tissue Culture Collection (ATCC). Detroit562 is referred to as Head & Neck squamous cell carcinomas (HNSCC) and was derived from a pharyngeal SCC tumor. […]
(§2) Cells of SCC or keratinocyte lines (Detroit562, SCC12B2, SCL1, HaCaT) were used for the proliferation assays when they had reached about 80% to 90% confluency. Cells were then harvested after trypsin-mediated dislodgement from culture flasks, washed in culture medium containing 10% FCS, counted in a hemocytometer and diluted complete culture medium with 5% FCS to obtain a cell density of 5×10^4 cells/ml. […] The cell proliferation was determined on the basis of incorporation of bromodesoxy-uridin (BrdU) into cellular DNA using the chemiluminescent BrdU Cell Proliferation ELISA (Roche article #11 669 915 001). […]

SCC12B2 cells = test: BrdU cell proliferation assay SCC12B2
Text: as §1, §2

[1] = system: HaCaT keratinocyte cell line; test: BrdU cell proliferation assay HaCaT keratinocytes
Protocol: Cells of SCC or keratinocyte lines (Detroit562, SCC12B2, SCL1, HaCaT) were used for the proliferation assays when they had reached about 80% to 90% confluency. Cells were then harvested after trypsin-mediated dislodgement from culture flasks, washed in culture medium containing 10% FCS, counted in a hemocytometer and diluted complete culture medium with 5% FCS to obtain a cell density of 5×10^4 cells/ml. 100 μl of this cell suspension (e.g. 5000 cells) were transferred into each well of a 96-well white walled tissue culture plate (Corning-Costar article #3917). Cells were then allowed to settle by placing them in the CO2 incubator for 45 to 60 minutes. Subsequently, a volume of 100 μl of culture medium containing twice the desired final concentration of the test compound was added to each well of quadruplicate wells. […] The cell proliferation was determined on the basis of incorporation of bromodesoxy-uridin (BrdU) into cellular DNA using the chemiluminescent BrdU Cell Proliferation ELISA (Roche article #11 669 915 001). […] Incorporation of BrdU into the DNA was detected by BrdU-specific antibodies and quantified on the basis of an antibody-coupled luciferase mediated signal generation. The luminescence emission was measured in a Victor light 1420 Luminescence counter, (Perkin Elmer) and expressed as relative luminescence units (e.g. data points given as RLU/s) per second. […]

Q: With `C[C@H]1[C@H](c2nccs2)OC(=O)N1c1cc(-c2cnc(N)nc2C(F)(F)F)nc(N2CCOCC2)n1` [Example 1, (4S,5R)-3-(2′-Amino-2-morpholin-4-yl-4′-trifluoromethyl-[4,5′]bipyrimidinyl-6-yl)-4-methyl-5-thiazol-2-yl-oxazolidin-2-one] as the molecule, how does the pIC50 (SCL-1 cells; measurement #1, read-out: anti-proliferative IC50 SCL-1 measurement #1) read?
A: The pIC50 was 6.45.

Q: What about the pIC50 (SCL-1 cells; measurement #2, read-out: anti-proliferative IC50 SCL-1 measurement #2) of the same molecule?
A: The pIC50 was 6.57.

Q: What about the pIC50 (SCC12B2 cells; measurement #1, read-out: anti-proliferative IC50 SCC12B2 measurement #1) of the same molecule?
A: The pIC50 was 5.89.

Q: What about the pIC50 (SCC12B2 cells; measurement #2, read-out: anti-proliferative IC50 SCC12B2 measurement #2) of the same molecule?
A: The pIC50 was 6.15.

Q: What about the pIC50 ([1]; measurement #1, read-out: anti-proliferative IC50 HaCaT measurement #1) of the same molecule?
A: The pIC50 was 6.55.

Q: What about the pIC50 ([1]; measurement #2, read-out: anti-proliferative IC50 HaCaT measurement #2) of the same molecule?
A: Its pIC50 is 6.53.
